The subject of one data set is healthy mucosa tissue. Set-up: species or system laboratory mouse. As to conditions: mouse, in vivo. As to the method: (§1) A laboratory mouse was used as the living body. […] The staining period was set at 5 minutes.
Another data set has as its system cancer tissue. Format: in vivo, laboratory mouse. As to conditions: mouse; for depth to which the tissue is stained: in vivo. As to the method:
as §1

For data set [1], the target named is T1, cancer-related gene product STAT3 (Mus musculus, UniProt P42227).
T1 construct: used to stain the expressed STAT3-family cancer-related gene product in the living cell; from tissue; host or cells: inner wall of the large intestine of a living laboratory mouse (cancerous and healthy sites)
T1 sequence (P42227 whole entry): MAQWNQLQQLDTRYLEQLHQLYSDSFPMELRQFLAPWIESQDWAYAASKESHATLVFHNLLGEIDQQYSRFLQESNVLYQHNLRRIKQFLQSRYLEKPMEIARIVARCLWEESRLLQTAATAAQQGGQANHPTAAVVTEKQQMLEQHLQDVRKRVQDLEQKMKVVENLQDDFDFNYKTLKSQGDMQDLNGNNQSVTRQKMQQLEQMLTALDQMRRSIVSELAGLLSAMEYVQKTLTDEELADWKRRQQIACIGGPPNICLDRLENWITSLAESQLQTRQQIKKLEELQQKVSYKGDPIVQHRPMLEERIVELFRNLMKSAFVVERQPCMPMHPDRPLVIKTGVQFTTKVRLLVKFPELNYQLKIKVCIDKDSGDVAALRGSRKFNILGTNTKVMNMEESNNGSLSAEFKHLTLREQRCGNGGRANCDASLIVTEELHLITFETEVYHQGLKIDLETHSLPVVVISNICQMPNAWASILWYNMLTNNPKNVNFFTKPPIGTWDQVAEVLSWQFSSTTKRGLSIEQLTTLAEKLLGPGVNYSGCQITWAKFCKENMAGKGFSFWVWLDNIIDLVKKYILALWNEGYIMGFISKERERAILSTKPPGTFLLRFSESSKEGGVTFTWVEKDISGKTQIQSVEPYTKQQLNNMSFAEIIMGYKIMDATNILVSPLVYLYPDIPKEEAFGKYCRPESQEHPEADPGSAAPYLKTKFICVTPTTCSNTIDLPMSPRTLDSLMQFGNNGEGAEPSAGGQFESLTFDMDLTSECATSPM
Briefly: Curcumin living body staining compared with anti-STAT3 antibody immunostaining of the same site, confocal laser microscope. As to conditions: 1%-curcumin then 1%-Acid Red, FIG. 4A (b) versus (e). It counts as in vivo, laboratory mouse. From the text: The sections (a), (b), and (c) of FIG. 4A are images of a sample that is a double-stained living cell group of the inner wall of the intestine of a living laboratory mouse produced by staining the inner wall of the intestine with a 1%-curcumin solution and then staining the curcumin-stained inner wall with 1%-Acid Red (C27H29N2NaO7S2). A confocal laser microscope was used as the image device.
It is therefore determined that the site containing the cell group heavily stained with the curcumin stain is ultra-early cancer. The three panels (d), (e), and (f) in the lower row of FIG. 4A show images of the same site of the large intestine of the digestive tract of the laboratory mouse imaged in the same living body staining as that in the upper row, fixed with formalin, and then imaged in the fluorescence antibody technique. […] The section (f) is a (d)+(e) superimposed image.
The sections (d), (e), and (f) of FIG. 4A are produced by fixing the intestine of the laboratory mouse described above with formalin, then immunostaining the intestine with an anti-STAT3 antibody that bonds to the STAT3-family cancer-related gene product, and imaging the same location as those surrounded by the white frames in the sections (a), (b), and (c). In the sections (d) to (f), the samples were fixed with formalin and therefore slightly shrunk.

Read-outs that look alike come from different tables or passages of the source.

As for `CCN(CC)c1ccc2c(-c3ccc(S(=O)(=O)[O-])cc3S(=O)(=O)[O-])c3ccc(=[N+](CC)CC)cc-3oc2c1.[Na+]` [Acid Red], the “depth to which the tissue is stained” value is “about 70 μm” in the data set on healthy mucosa tissue and “about 40 μm” in the data set on cancer tissue. The “permeability in the cancer tissue compared with the healthy mucosa tissue” value in the data set on cancer tissue was “lower permeability”.
As to `COc1cc(/C=C/C(=O)CC(=O)/C=C/c2ccc(O)c(OC)c2)ccc1O` [curcumin], the “depth to which the tissue is stained” value is reported as “about 20 μm” with healthy mucosa tissue (5 min) and “about 40 μm” with cancer tissue (5 min). For the same compound, the “distribution of heavily stained cell group versus cell group with STAT3 highly expressed (anti-STAT3 antibody)” value in data set [1] is “coincides with the distribution of the cell group shown in the section (e) in the lower row and having the cancer-related gene product STAT3 highly expressed”. In the data set on cancer tissue, the “permeability in the cancer tissue compared with the healthy mucosa tissue” value is given as “higher permeability”.

The record behind these values is patent US11852632B2, “Cancer test device, cancer test method, and staining agent for use in cancer test” (MIE UNIVERSITY, priority 2016, dated 2023).
